Assay results published in PMC10221320.
Positions of bridges follow the written chain, without caps; N, C: chain ends. No end group written: not given here.

What was measured:
[1] = system: CD-1 mice; test: Nociceptive reaction to direct hind paw pad injection; format: in vivo, mouse; conditions: 1 mg/kg in the hind paw pad; 15 min
Description: (§1) The animal studies were performed under the European Commission’s legislation (Directives 86/609/EEC, 2010/63/EU), the National Standard of the Russian Federation “Good Laboratory Practice” (GOST P 53434-2009, Moscow, Russia), and Committee on Ethics of Laboratory Animal Handling № 05/21, 20 September 2021 and 08/21, 30 December 2021 protocols (PIBOC FEB RAS). Adult female CD-1 mice weighing 25 ± 2 g were subjected to a 12 h light–dark cycle at room temperature and with ad libitum access to food and water. There were seven or eight individuals in each group.
For a direct Hmg 1b-4 injection (to eliminate the nociceptive reaction of potentiator of ASIC3 channels), it was dissolved in saline and administered at a dose of 1 mg/kg in the hind paw pad. The control group was injected with an identical volume (20 µL) of saline. The animals were placed individually, and a nociceptive reaction was registered for 15 min.

[2] = system: CD-1 mice; test: Open field test; format: in vivo, mouse; conditions: for N (c.z.), number of visits to central zone / N (def), number of bowel movements / N (peeps), number of peeps into minks / N (racks), vertical activity / N (s.p.), number of visits to side platform / S (act), distance traveled during activity / S, distance traveled / T (act), activity time / T (b.z.), staying on the border zone / T (c.z.), time spent on the central zone / T (e.c.z.), time of exit from the central zone / T (pass), passivity time / V(act), average movement speed during activity / V, average travel speed: mean ± SD
Description: as §1
The animal activity and anxiety-related and exploratory behaviors were estimated at the open field facility (OpenScience, Krasnogorsk, Russia). Three groups of animals were treated with peptides at doses of 0.01, 0.1 and 1 mg/kg (intravenously) 30 min before testing. The control group was injected with an identical volume (50 µL) of saline. The animals were placed in the center of the lightened arena, and the recording lasted 3 min. Using the software “Minotaur” (LLC “Neurobiotics”, Zelenograd, Russia), 14 parameters were estimated: time (T) of activity (act); passivity (pass); spent on the central zone (c.z.), staying on the border zone (b.z.); exit from the central zone (e.c.z.); average travel speed (V, m/s); average movement speed during activity (V(act)); distance traveled (S, m); distance traveled during activity (S (act)); number (N) of visits to central zone (c.z.); visits to side platform (s.p.); vertical activity (racks); peeps into minks (peeps); and bowel movements (def).

[3] = system: rat ASIC1a (rASIC1a); test: Two-electrode voltage clamp, rASIC1a in Xenopus laevis oocytes; format: cell-based; conditions: 1 μM; pH drop from 7.4 to 5.5; −50 mV; n = 5; recombinant peptide
[4] = system: CD-1 mice; test: Acute toxicity, intravenous; format: in vivo, mouse; conditions: 1 mg/kg i.v., single; 24 h observation
Description: as §1
Lyophilized peptides were dissolved in 0.9% NaCl solution (saline) and administered once intravenously at doses of 1 mg/kg; the control group received saline (10 mL/kg or 250 µL/mouse). Then, alterations in physiological parameters, such as motility, behavioral responses and physical activity, were registered in each of the animal groups over 24 h.

[5] = 0.01 mg/kg i.v. 30 min before testing, n = 7–8
[6] = 0.1 mg/kg i.v. 30 min before testing, n = 7–8
[7] = 1 mg/kg i.v. 30 min before testing, n = 7–8

GTPCDCYGYTGVYWFMLSRCPSGYGYNLSCHYFMGICCVKR (disulfide 4-37, 6-30, 20-38 (inferred)) [Hmg 1b-4]
nociceptive reaction [1]: did not induce a nociceptive reaction
N (c.z.), number of visits to central zone [2, 5]: 12 ± 0.8
N (def), number of bowel movements [2, 5]: 1.2 ± 0.2
N (peeps), number of peeps into minks [2, 5]: 8.0 ± 0.5
N (racks), vertical activity [2, 5]: 27.2 ± 1.9
N (s.p.), number of visits to side platform [2, 5]: 13.3 ± 1.1
S (act), distance traveled during activity [2, 5]: 25.0 ± 2.4 m
S, distance traveled [2, 5]: 25.0 ± 1.8 m
T (act), activity time [2, 5]: 113.5 ± 9.5 s
T (b.z.), staying on the border zone [2, 5]: 145.4 ± 5.2 s
T (c.z.), time spent on the central zone [2, 5]: 34.2 ± 2.8 s
T (e.c.z.), time of exit from the central zone [2, 5]: 6.5 ± 3.1 s
T (pass), passivity time [2, 5]: 64.2 ± 7.4 s
V(act), average movement speed during activity [2, 5]: 0.22 ± 0.02 m/s
V, average travel speed [2, 5]: 0.14 ± 0.02 m/s
N (c.z.), number of visits to central zone [2, 6]: 21.2 ± 6.1
N (def), number of bowel movements [2, 6]: 0
N (peeps), number of peeps into minks [2, 6]: 7.8 ± 2.1
N (racks), vertical activity [2, 6]: 37.0 ± 7.8
N (s.p.), number of visits to side platform [2, 6]: 20.1 ± 6.4
S (act), distance traveled during activity [2, 6]: 24.2 ± 5.1 m
S, distance traveled [2, 6]: 24.2 ± 5.1 m
T (b.z.), staying on the border zone [2, 6]: 127.5 ± 10.0 s
T (c.z.), time spent on the central zone [2, 6]: 53.8 ± 10.3 s
T (e.c.z.), time of exit from the central zone [2, 6]: 6.1 ± 3.3 s
T (pass), passivity time [2, 6]: 55.1 ± 11.1 s
V(act), average movement speed during activity [2, 6]: 0.22 ± 0.03 m/s
V, average travel speed [2, 6]: 0.14 ± 0.03 m/s
T (act), activity time ([2]; 0.1 mg/kg i.v. 30 min before testing, n = 7–8 (SD on next line: Hmg 1b-2 10.7, Hmg 1b-4 13.1)): 122.3 s
time spent in the center of the arena ([2]; 0.1 mg/kg i.v., vs control): increased the time the animals spent in the center of the arena
N (c.z.), number of visits to central zone [2, 7]: 16.8 ± 2.7
N (def), number of bowel movements [2, 7]: 0.5 ± 0.7
N (peeps), number of peeps into minks [2, 7]: 9.0 ± 1.5
N (racks), vertical activity [2, 7]: 37.4 ± 3.9
N (s.p.), number of visits to side platform [2, 7]: 16.9 ± 2.8
S (act), distance traveled during activity [2, 7]: 24.6 ± 7.5 m
S, distance traveled [2, 7]: 24.6 ± 2.3 m
T (b.z.), staying on the border zone [2, 7]: 143.8 ± 8.2 s
T (c.z.), time spent on the central zone [2, 7]: 34.9 ± 5.9 s
T (e.c.z.), time of exit from the central zone [2, 7]: 6.4 ± 2.4 s
T (pass), passivity time [2, 7]: 56.8 ± 9.1 s
V(act), average movement speed during activity [2, 7]: 0.21 ± 0.02 m/s
V, average travel speed [2, 7]: 0.14 ± 0.01 m/s
T (act), activity time ([2]; 1 mg/kg i.v. 30 min before testing, n = 7–8 (SD on next line: Hmg 1b-4 10.4)): 119.9 s
number of vertical stances ([2]; 0.1 and 1 mg/kg i.v., vs control): increased
conclusion on CNS effect ([2]; i.v.): anxiolytic effect
effect on distance travelled and speed of movement ([2]; i.v.): did not affect these options
exploration activity (number of peeps into the holes) ([2]; i.v.): significantly increased the exploration activity of mice
most effective dose on peeps into the holes ([2]; i.v.): 1 mg/kg
percentage of the activity time ([2]; i.v., control group 50%, significant increase): 70%
inhibition of rASIC1a currents [3]: 45%
toxicity symptoms [4]: did not cause the symptoms of neurotoxicity or obvious changes in the behavior of animals
